Test results: paper PMC11583123, “Linker Chemistry and Connectivity Fine-Tune the Immune Response and Kinetic Solubility of Conjugated NOD2/TLR7 Agonists” (Bioconjugate Chemistry, 2024)
pEC50: −log10 of the molar value. Entries after “also recorded” stand apart in the source; their conditions may differ.

Tests used:
[1] = tested on: human primary peripheral blood mononuclear cells (PBMCs); experiment: Cytokine release from peripheral blood mononuclear cells (LEGENDplex); format: cell-based; details: 1 μM, 18 h, Figure S2
Protocol: Third, the immunostimulatory potential of synthesized conjugates was assessed in human primary peripheral blood mononuclear cells (PBMCs) (Figure 3, Supporting Table), which represent a diverse array of immune cell subpopulations, providing a more physiologically relevant system for studying concurrent NOD2/TLR7 or NOD2/TLR7/TLR8 activation. […]
software (version 9; GraphPad Software, CA, USA). The experiments were run in duplicates, and repeated as at least three independent biological replicates.
3.5 Cytokine Release from Peripheral Blood Mononuclear Cells […]
growth medium and treated with the compounds (1 μM), or the corresponding vehicle (0.1% DMSO).
Cell-free supernatants were collected after 18 h of incubation (37 °C, 5% CO2) and stored at −80 °C until tested. Cytokine concentrations were determined with the LEGENDplex™ HU Essential Immune Response Panel (Biolegend) on an Attune NxT flow cytometer (Thermo Fisher Scientific, Waltham, MA). […] The data were analyzed using the FlowJo (Tree Star, Inc., Ashland, OR) and Prism (GraphPad, San Diego, CA) software.
Statistical significance was determined with one-way ANOVA with subsequent Dunnett’s multiple […]
The data were analyzed using Prism software (version 9; GraphPad Software, CA, USA). Statistical significance was determined according to the specific procedures outlined in each experiment. […]

human TLR8 = molecular target: T1, human TLR8 (Homo sapiens, UniProt Q9NR97); experiment: HEK-Blue TLR8 NF-κB SEAP reporter assay; format: cell-based; details: HEK-Blue TLR8 cells; for pEC50: 18 h, eight concentrations (1 nM to 10 μM), mean ± SEM; for TLR8 agonistic activity (in words): up to 10 μM
T1 construct: host or cells: HEK-Blue TLR8 (HEK293-derived)
T1 sequence (Q9NR97 27-1041): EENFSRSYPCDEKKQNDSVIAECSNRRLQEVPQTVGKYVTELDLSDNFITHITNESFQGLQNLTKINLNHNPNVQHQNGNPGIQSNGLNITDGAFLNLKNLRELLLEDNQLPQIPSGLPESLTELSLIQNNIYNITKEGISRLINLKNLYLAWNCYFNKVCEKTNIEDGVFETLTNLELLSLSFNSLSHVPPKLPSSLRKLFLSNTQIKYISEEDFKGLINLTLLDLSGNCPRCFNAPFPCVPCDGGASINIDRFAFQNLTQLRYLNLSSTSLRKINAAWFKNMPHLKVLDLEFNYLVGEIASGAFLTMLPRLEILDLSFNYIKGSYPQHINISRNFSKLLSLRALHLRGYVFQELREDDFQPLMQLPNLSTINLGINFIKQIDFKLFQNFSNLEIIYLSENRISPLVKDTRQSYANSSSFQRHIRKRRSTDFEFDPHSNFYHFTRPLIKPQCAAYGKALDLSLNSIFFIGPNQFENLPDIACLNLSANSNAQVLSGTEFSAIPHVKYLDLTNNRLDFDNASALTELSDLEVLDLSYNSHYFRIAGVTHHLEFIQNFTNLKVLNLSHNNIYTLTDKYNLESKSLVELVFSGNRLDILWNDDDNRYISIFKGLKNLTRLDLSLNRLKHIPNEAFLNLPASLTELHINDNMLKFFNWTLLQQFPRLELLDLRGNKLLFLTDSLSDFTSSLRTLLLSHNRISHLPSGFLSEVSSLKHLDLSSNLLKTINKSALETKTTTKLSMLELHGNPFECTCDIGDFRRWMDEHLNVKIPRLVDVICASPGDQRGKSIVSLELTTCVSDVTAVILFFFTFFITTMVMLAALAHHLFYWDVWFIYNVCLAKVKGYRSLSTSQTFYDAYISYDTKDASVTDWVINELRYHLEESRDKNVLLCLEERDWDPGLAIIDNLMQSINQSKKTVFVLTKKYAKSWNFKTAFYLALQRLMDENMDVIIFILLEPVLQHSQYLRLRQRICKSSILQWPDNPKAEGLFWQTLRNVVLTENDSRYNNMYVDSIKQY
Excerpt: The building blocks and synthesized conjugates were initially assessed for their receptor-specific activities toward NOD2, TLR7 and TLR8 using the commercially available HEK-Blue NOD2, TLR7 and TLR8 reporter cell lines. These cell lines were derived from HEK293 cells by cotransfection of human NOD2/TLR7/TLR8 and an NF-κB-inducible secreted embryonic alkaline phosphatase (SEAP). Activation of NOD2/TLR7/TLR8, and subsequently of NF-κB, leads to the expression and secretion of SEAP, the levels of which can be quantified colorimetrically. […]
3.1. Hek-Blue NOD2, TLR7 and TLR8 cells.
HEK-Blue NOD2, TLR7, and TLR8 cells (Invivogen, San Diego, CA, USA) were cultured according to the manufacturer instructions in Dulbecco’s modified Eagle’s medium (Sigma-Aldrich, St. Louis, MO, USA) supplemented with 10% heat-inactivated fetal bovine serum (Gibco), 2 mM L-glutamine (Sigma-Aldrich), 100 U/mL penicillin (Sigma-Aldrich), 100 µg/mL streptomycin (Sigma-Aldrich), and 100 µg/mL Normocin (Invivogen) for two passages. All subsequent passages of NOD2 and TLR8 cells were cultured in medium additionally supplemented with 100 µg/mL Zeocin and 30 µg/mL Blasticidin (Invivogen) and of TLR7 cells with 100 µg/mL Zeocin and 10 µg/mL Blasticidin. […]
The tested compounds were dissolved in DMSO and further diluted in culture medium to the desired final concentrations, such that the final DMSO concentration never exceeded 0.1%. […]
3.4 NOD2/TLR7/TLR8 NF-kB reporter assay
HEK-Blue NOD2 cells (25,000 cells/well), TLR7 and TLR8 cells (40,000 cells/well) were seeded in 96-well plates in 100 µL HEK-Blue detection medium (Invivogen, San Diego, CA, USA) and treated with […]
corresponding vehicle (0.1% DMSO). After 18 h of incubation (37 °C, 5% CO2), secreted embryonic

| SMILES | Cytokine release versus combinations of 5 + 6 or 5 + 7 (in words) [1] | pEC50 (human TLR8) | TLR8 agonistic activity (in words) (human TLR8) |
| --- | --- | --- | --- |
| CCOCc1nc2c(NC(=O)CCCCCNC(=O)CC[C@@H](NC(=O)[C@@H](NC(=O)CNC(=O)/C=C/c3ccc(O)c(OC)c3)C(C)C)C(=O)OCC)nc3ccccc3c2n1CC(C)(C)O [compound 32] | devoid of any potential synergistic effect; also recorded: not significantly increased | < 5.00 | neither 32 nor 33 were able to induce any TLR8 agonistic activity |
| CCOCc1nc2c(N)nc3ccccc3c2n1CC(C)(C)NC(=O)CCCCCNC(=O)CC[C@@H](NC(=O)[C@@H](NC(=O)CNC(=O)/C=C/c1ccc(O)c(OC)c1)C(C)C)C(=O)OCC [compound 33] | devoid of any potential synergistic effect; also recorded: not significantly increased | < 5.00 | neither 32 nor 33 were able to induce any TLR8 agonistic activity |
